Assays:
male Sprague Dawley rats = experiment: Pro-convulsant testing, acute treatment, PTZ infusion; format: in vivo, rat; conditions: 10.0 mg/kg IP 30 min prior to PTZ infusion; post hoc tests
Method: Sixty naive male Sprague Dawley rats (225-265 g) housed in groups of four with food and water freely available, served as subjects. The rats were assigned to one of six groups and given: Vehicle or 0.5, 1.0, 2.0, 4.0 mg/kg of […] or 10.0 mg/kg of the non-selective receptor inverse agonist, CGS 8216, a known pro-convulsant agent. Vehicle, FG 8094 or CGS 8216 was administered IP 30 min prior to an infusion of the convulsant, pentylenetetrazole (PTZ, 40 mg/ml). PTZ was infused into the tail vein of the rat at the rate of 1.0 ml/min. The latency to clonic and tonic seizure were recorded and the threshold to each was calculated using the equation: Threshold dose=infusion rate (ml/s)×PTZ (mg/ml)×(1000/rats weight)×latency(s).

[1] = test system: α1 and α5-containing receptors; conditions: cited from earlier work
α3β3γ2 = biological target: T1, α3β3γ2 (Homo sapiens, UniProt P18507+P34903); experiment: Radioligand binding, membranes of stably transfected cells; conditions: [3H]Ro 15-1788 at twice Kd; mean±SEM, 3-6 determinations; read-out: Ki α3β3γ2
T1 construct: expressed in transfected cells
T1 sequence (P34903 29-492): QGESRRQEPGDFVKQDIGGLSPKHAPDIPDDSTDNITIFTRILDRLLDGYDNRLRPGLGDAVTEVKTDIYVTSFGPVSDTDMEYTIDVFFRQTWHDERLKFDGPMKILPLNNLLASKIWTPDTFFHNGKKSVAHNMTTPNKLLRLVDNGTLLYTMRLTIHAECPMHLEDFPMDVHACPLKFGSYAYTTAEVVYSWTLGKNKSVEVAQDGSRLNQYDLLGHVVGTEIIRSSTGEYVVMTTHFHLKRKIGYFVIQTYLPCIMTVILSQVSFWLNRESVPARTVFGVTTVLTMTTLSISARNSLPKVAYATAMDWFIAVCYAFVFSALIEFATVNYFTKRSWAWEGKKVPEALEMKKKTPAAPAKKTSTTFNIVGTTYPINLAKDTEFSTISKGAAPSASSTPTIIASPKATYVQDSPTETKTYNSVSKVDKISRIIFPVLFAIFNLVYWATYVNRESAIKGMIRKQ
T1 sequence (P28472 26-473 partner): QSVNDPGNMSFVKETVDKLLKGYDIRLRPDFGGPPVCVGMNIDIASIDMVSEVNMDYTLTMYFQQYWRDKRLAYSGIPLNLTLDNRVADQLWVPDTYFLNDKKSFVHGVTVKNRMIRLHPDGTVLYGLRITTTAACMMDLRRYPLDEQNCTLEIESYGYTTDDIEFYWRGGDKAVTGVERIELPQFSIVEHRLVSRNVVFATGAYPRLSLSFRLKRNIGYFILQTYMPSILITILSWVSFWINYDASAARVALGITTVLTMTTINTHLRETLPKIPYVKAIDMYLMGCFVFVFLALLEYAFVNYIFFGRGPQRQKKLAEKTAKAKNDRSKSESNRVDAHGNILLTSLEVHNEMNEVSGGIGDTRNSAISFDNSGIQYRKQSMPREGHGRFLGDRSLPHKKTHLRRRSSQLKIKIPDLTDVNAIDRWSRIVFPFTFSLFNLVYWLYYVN
T1 sequence (P18507 40-467 isoform P18507-1 limits assumed): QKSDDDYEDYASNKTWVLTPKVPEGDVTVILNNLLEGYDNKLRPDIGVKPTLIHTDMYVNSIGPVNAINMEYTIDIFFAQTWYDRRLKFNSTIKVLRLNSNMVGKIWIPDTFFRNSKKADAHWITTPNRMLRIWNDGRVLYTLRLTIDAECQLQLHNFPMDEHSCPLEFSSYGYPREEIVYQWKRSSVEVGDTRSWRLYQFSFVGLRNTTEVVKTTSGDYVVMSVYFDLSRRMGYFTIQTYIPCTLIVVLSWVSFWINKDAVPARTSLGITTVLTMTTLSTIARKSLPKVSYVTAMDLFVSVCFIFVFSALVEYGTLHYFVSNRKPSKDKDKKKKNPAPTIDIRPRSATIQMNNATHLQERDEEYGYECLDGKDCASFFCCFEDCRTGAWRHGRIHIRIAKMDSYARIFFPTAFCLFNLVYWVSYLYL

α5β3γ2 = biological target: T2, α5β3γ2 (Homo sapiens, UniProt P18507+P31644); experiment: as above; conditions: [3H]Ro 15-1788 at twice Kd; mean±SEM, 3-6 determinations; read-out: Ki α5β3γ2
T2 construct: expressed in transfected cells
T2 sequence (P31644 32-462): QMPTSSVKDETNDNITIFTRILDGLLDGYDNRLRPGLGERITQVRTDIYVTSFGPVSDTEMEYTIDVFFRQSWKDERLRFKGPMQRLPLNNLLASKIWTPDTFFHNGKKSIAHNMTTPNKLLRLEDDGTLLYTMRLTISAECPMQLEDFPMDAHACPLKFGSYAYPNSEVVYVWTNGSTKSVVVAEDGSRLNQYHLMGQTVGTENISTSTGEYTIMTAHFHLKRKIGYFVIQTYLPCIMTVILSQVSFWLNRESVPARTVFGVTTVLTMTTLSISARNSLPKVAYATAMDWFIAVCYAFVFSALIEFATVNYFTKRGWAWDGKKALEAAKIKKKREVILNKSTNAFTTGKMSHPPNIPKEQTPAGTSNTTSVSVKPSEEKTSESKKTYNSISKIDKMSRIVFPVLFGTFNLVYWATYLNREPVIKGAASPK
T2 sequence (P28472 26-473 partner): as the sequence (P28472 26-473 partner) above
T2 sequence (P18507 40-467 isoform P18507-1 limits assumed): as the sequence (P18507 40-467 isoform P18507-1 limits assumed) above

α6β3γ2 = biological target: T3, α6β3γ2 (Homo sapiens, UniProt P18507+Q16445); experiment: as above; conditions: [3H]Ro 15-4513 as radioligand; mean±SEM, 3-6 determinations; read-out: Ki α6β3γ2
T3 construct: expressed in transfected cells
T3 sequence (Q16445 20-453): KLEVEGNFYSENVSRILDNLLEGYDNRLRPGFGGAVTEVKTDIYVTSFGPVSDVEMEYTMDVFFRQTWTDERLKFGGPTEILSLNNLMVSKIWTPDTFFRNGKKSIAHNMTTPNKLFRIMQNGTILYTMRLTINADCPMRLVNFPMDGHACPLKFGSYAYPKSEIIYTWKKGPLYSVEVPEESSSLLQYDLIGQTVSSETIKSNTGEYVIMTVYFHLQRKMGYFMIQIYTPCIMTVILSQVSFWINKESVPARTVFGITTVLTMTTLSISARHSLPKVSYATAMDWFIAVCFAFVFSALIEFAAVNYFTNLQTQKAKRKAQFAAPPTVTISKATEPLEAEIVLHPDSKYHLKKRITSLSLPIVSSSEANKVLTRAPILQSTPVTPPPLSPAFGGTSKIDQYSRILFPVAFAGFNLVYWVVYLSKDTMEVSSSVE
T3 sequence (P28472 26-473 partner): as the sequence (P28472 26-473 partner) above
T3 sequence (P18507 40-467 isoform P18507-1 limits assumed): as the sequence (P18507 40-467 isoform P18507-1 limits assumed) above

[2] = in vivo; cited from earlier work

O=C1C2C=Nc3ccccc3C2=NN1c1ccccc1 (stereo not shown) [CGS 8216, reference compound]
threshold dose of PTZ to tonic seizures (male Sprague Dawley rats): significantly lowered the threshold doses to tonic seizures

Cc1nnc2ccc(-c3cccc(C(F)(F)F)c3)nn12 [CL 218,872]
relative affinity α1 versus α5-containing receptors [1]: greater anfinity for α1 than for α5-containing receptors

CCOC(=O)c1ncn2c1CN(C)C(=O)c1cc(N=[N+]=[N-])ccc1-2 [Ro 15-4513, reference compound]
Ki (α3β3γ2): 1.28 ± 0.06 nM
Ki (α5β3γ2): 0.24 ± 0.05 nM
Ki (α6β3γ2): 6.5 ± 0.6 nM

Cc1ccc(-c2nc3ccc(C)cn3c2CC(=O)N(C)C)cc1 [zolpidem]
relative affinity α1 versus α5-containing receptors [1]: greater anfinity for α1 than for α5-containing receptors

COC(=O)c1cc2c(cn1)[nH]c1ccccc12 [β-CCM]
spatial learning in the Morris watermaze [2]: enhanced spatial learning
